Data reported in the C3SDB collision cross section collection.
One block for each compound: values may come before it.

Settings: instrument: TW, calibrated with polyalanine

- collision cross section (N2) ([M+H]+): 258 Å²
- collision cross section (N2) ([M+K]+): 264.5 Å²
- collision cross section (N2) ([M+Na]+): 259.2 Å²
SMILES: CCCC[C@@H](C)[C@@H](OC(=O)CC(CC(=O)O)C(=O)O)[C@H](C[C@@H](C)C[C@H](O)CCCCCC[C@@H](O)[C@H](C)N)OC(=O)CC(CC(=O)O)C(=O)O (stereo partly specified) [Fumonisin B3]

- collision cross section (N2) ([M+H]+): 255 Å²
- collision cross section (N2) ([M+K]+): 264.6 Å²
- collision cross section (N2) ([M+Na]+): 260.4 Å²
SMILES: CCCC[C@@H](C)[C@@H](OC(=O)C[C@@H](CC(=O)O)C(=O)O)[C@H](C[C@@H](C)CCCCCCCC[C@H](O)[C@H](C)N)OC(=O)C[C@@H](CC(=O)O)C(=O)O [Fumonisin B4]

SMILES: C=CC(C)(C)[C@@]12C=C(O)C(=O)N3/C(=C/c4cnc[nH]4)C(=O)N[C@]31N(OC)c1ccccc12 [Meleagrin]
- collision cross section (N2) ([M+H]+): 201 Å²

- collision cross section (N2) ([M+NH4]+): 176 Å²
SMILES: COc1c(C)c2c(c(O)c1C/C=C(\C)CCC(=O)O)C(=O)OC2 [Mycophenolic acid]

SMILES: O=C1C=C2C(=CCOC2O)O1 (stereo unspecified) [Patulin]
- collision cross section (N2) ([M+H3C2O2]-): 142 Å²

SMILES: C=C(C)C(=O)/C(=C/C(=O)O)OC [Penicillic acid]
- collision cross section (N2) ([M+H]+): 131 Å²

SMILES: C[C@H]1CCC[C@H](O)CCC/C=C/c2cc(O)cc(O)c2C(=O)O1 [alpha-zearalenol]
- collision cross section (N2) ([M-H]-): 173 Å²
